This note sets out measurements from ChEMBL document CHEMBL5230158, “Artapilosines A and B, Unusual Phenanthrene Derivatives Related to Aporphine Alkaloids from Artabotrys pilosus” (J Nat Prod, 2021).

Structures are written as SMILES.

For series [1], the system named is Human immunodeficiency virus 1. Description: Antiviral activity against HIV-1 IIIB infected in human C8166 cells assessed as inhibition of reverse transcriptase mediated cytopathic effect incubated for 3 days by MTT assay. Format: functional, organism-based. To be noted: Human immunodeficiency virus 1, IIIB, C8166, 72 h.
A short description of series [2]: Cytotoxicity against human C8166 cells assessed as reduction in cell viability incubated for 3 days by MTT assay. The conditions noted are these: time 3 day. Format: toxicity, cell-based.
A short description of series [3]: Therapeutic index, ratio of CC50 for cytotoxicity against human C8166 cells to EC50 for antiviral activity against HIV-1 IIIB infected in human C8166 cells. It counts as toxicity, cell-based. The conditions noted are these: read-out: Ratio CC50/EC50.

On to `CC(=O)N1CCc2cc3c(c4c2[C@H]1Cc1ccccc1-4)OCO3`, for which, in series [1], the IC50 was above 40 µM.
The same measure, in the same setting: with `c1ccc2c(c1)C[C@H]1NCCc3cc4c(c-2c31)OCO4` [ANONAINE] the figure was above 40 µM.
Turning to `O[C@H]1Cc2cc3c(c4c2c1cc1ccccc14)OCO3`, in series [1], the EC50 amounted to 0.0209 µM. In addition, in series [2], the CC50 at 72 h worked out at 3090 µM. For the same compound, the selectivity ratio in series [3] worked out at 148000.
On the same counts, the results for `OCCc1cc2c(c3c1ccc1ccccc13)OCO2` are 0.125 µM, 838 µM and 6690.
The like results for `Cc1cn([C@H]2C[C@H](N=[N+]=[N-])[C@@H](CO)O2)c(=O)[nH]c1=O` [ZIDOVUDINE] were, in that order, 0.0239 µM, 3990 µM and 167000.
